Values of other authors, collected in patent publication US9050475B2, “High SPF sunscreen compositions” (MD SOLARSCIENCES CORP., priority 2010, dated 2015).

Details: known UV-A or UV-B protection properties of FDA-approved sunscreens

Row | Structure (SMILES) | Range Covered
1 | CCOCCOC(=O)C=Cc1ccc(OC)cc1 [Cinoxate, 2-ethoxyethylp-methoxycinnamate] | UV-B (UV-B: 290-320 nm)
2 | CC1CC(OC(=O)c2ccccc2O)CC(C)(C)C1 (stereo not shown) [Homosalate] | UV-B (UV-B: 290-320 nm)
3 | CCCCC(CC)COC(=O)C(C#N)=C(c1ccccc1)c1ccccc1 (stereo not shown) [Octocrylene, 2-ethylhexyl-2-cyano-3.3 diphenylacrylate] | UV-B (UV-B: 290-320 nm)
4 | CCCCC(CC)COC(=O)c1ccc(N(C)C)cc1 (stereo not shown) [Padimate O, octyl dimethyl PABA] | UV-B (UV-B: 290-320 nm)
5 | CCCCC(CC)COC(=O)c1ccccc1O (stereo not shown) [Octisalate, 2-ethylhexyl salicylate] | UV-B (UV-B: 290-320 nm)
6 | COc1cc(O)c(C(=O)c2ccccc2)cc1S(=O)(=O)O [Sulisobenzone] | UV-B, UV-A2
7 | COc1ccc(C(=O)c2ccccc2)c(O)c1 [Oxybenzone] | UV-B, UV-A2
